{
  "source": "patent US12624068B2",
  "about": "“Exon skipping by peptide nucleic acid derivatives” (OliPass Corporation, priority 2016, dated 2026)",
  "key": {"[1]": {"test_system": "mouse dystrophin pre-mRNA", "assay": "Dystrophin nested PCR (Method A) in muscles of mdx mice", "assay_type": "in vivo", "description": "“DMD-ASO 1” and “DMD-ASO 4” were evaluated for their ability to induce exon skipping in muscles of mdx mice by subcutaneous administration as follows. [ASO Treatment & Sampling Muscle Tissues] The injection solutions were prepared by diluting an aqueous mother stock solution of “DMD-ASO 1” or “DMD-ASO 4” in PBS to 500 nM. Male mdx mice were subcutaneously administered with vehicle only (negative control), “DMD-ASO 1” or “DMD-ASO 4” at 2 mL/Kg, 2× per day (BID) for 3 days. One day after the final dose, the animals were anesthetized with zoletil/rompun, and sacrificed to sample muscle tissues including the heart, diaphragm, gatrocnemius, quadriceps, and triceps. [RNA Extraction] Muscle samples were homogenized by grinding in a tube kept on ice, and subjected to total RNA extraction with 1 mL trizol reagent (Invitrogen) per ca 100 mg muscle tissue. [cDNA Synthesis by One-Step RT-PCR] 500 ng of RNA template was used in a 25 μL reverse transcription reaction using Super Script® One-Step RT-PCR kit with Platinum® Taq polymerase (Cat. Number 10928-042, Invitrogen) and a set of exon-specific primers [DMD-exon 21_forward: (5'→3') […] NO: 103); and DMD-exon 25_reverse: (5'→3') […] [Nested PCR Amplification] 1 μL of cDNA was further amplified in a 20 μL nested PCR (Cat. Number K2612, Bioneer) reaction against a set of primers [DMD-exon 22n_forward: (5'→3') […] NO: 105); and DMD-exon 25n_reverse: (5'→3') […] [Identification of Exon Skipping Product] The skipping of exon 23 was detected only in the animals treated with “DMD-ASO 1” and “DMD-ASO 4”. […] Mdx mice subcutaneously received “DMD-ASO 1” at 0 (negative control) or 10 pmole/Kg, 2× per day for 5 days. (2 animals per group) One day after the final dose, the animals were sacrificed for tissue sampling. The triceps samples were evaluated for the skipping of exon 23 according to the nested RT-PCR method described in “DMD Example 1”."}, "[2]": {"test_system": "mouse dystrophin pre-mRNA", "assay": "Dystrophin nested PCR (Method B) in muscles of mdx mice", "assay_type": "in vivo", "settings": "skeletal muscles sampled in Week 7", "description": "The RNA samples obtained in “DMD Example 1” were subjected to a one-step cDNA synthesis using a set of exon-specific primers of [DMD-exon 20_forward: (5'→3') […] NO: 107); and DMD-exon 26_reverse: (5'→3') […] NO: 108)]. The cDNA samples were then analyzed by nested PCR against another set of exon-specific primers of [DMD-exon 20n_forward: (5'→3') […] NO: 109); and DMD-exon 26n_reverse: (5'→3') […] NO: 110)]. [Nested PCR for Exon Skipping (Method B)] Muscle samples were homogenized by grinding in a tube kept on ice, and subjected to total RNA extraction with 1 mL trizol reagent (Invitrogen) per ca 100 mg muscle tissue. The total RNAs were evaluated for exon skipping by nested PCR as described in “DMD Example 2”."}, "mdx mice": {"test_system": "mdx mice", "assay": "Unscheduled death, sacrifice or lymphoma in chronically treated mdx mice", "assay_type": "in vivo, mouse", "description": "[Grouping & ASO Treatment] Male mdx mice (7 weeks old) were randomly assigned to 4 groups of 0 (mdx negative control), 10, 50, and 200 pmole/Kg “DMD-ASO 1” based on individual grip strength scores by grip test. (N=12 per group) A satellite group of 12 male C57BL/6 mice (7 weeks old) was included in this study as the wild type negative control group for the full-length dystrophin expression level.\nThe 50 and 200 pmole/Kg group subcutaneously received “DMD-ASO 1” as dissolved in PBS, 2× per week until the final sacrifice in Week 43. In the meantime, the 10 pmole/Kg group subcutaneously received “DMD-ASO 1” initially 2× per week during Week 0 to 8, and 3× per week afterwards to increase the ASO exposure.\n[Miscellaneous Findings] There were three cases of unscheduled sacrifice or death (Weeks 26, 39 and 43) in the mdx negative control group due to a large mass of muscular lymphoma developed most likely by chronic muscular inflammation.\n“DMD-ASO 1”, “DMD-ASO 2” and “DMD-ASO 6” were evaluated for their physiological effects in male mdx mice by long term subcutaneous administration. In this evaluation the animals were not subjected to physical tests requiring muscular stress in order to keep the transcription of the dystrophin gene undisturbed by excessive muscular stimulation.\n[Animals & Grouping] Male mdx mice (6 weeks old) were randomly assigned to 4 groups of the mdx negative control (no ASO treatment), “DMD-ASO 1” 50 pmole/Kg, “DMD-ASO 2” […], and “DMD-ASO 6” […] based on the body weight. (N=12-13 per group) 12 male C57BL/6 mice (6 weeks old) were adopted as the wild type (WT) negative control group.\n[Injection Solutions & ASO Treatment] Aqueous mother stock solutions of the ASOs were serially diluted in PBS to prepare the injection solutions of 25 nM “DMD-ASO 1” for 50 pmole/Kg “DMD-ASO 1”, 5 nM “DMD-ASO 2” for “DMD-ASO 2” 10 pmole/Kg, and 5 nM “DMD-ASO 6” for “DMD-ASO 6” 10 pmole/Kg. The animals were subcutaneously administered with the injection solutions at 2 mL/Kg, 2× per week."}},
  "data": [
    {"substance": "Fethoc-A(5)GA-G(6)CC(1O2)-TCA-A(5)AA(5)-T-NH2 (antisense AGAGCCTCAAAAT; Fethoc N-cap, C-terminal amide, chemistry not fully specified) [DMD-ASO 1]", "values": [
      {"measurement": "skipping of dystrophin exon 23 (nested PCR Method A)", "setting": "[1]; subcutaneous 10 pmole/Kg, 2× per day for 5 days, triceps", "result": "induced the skipping of exon 23"},
      {"measurement": "skipping of dystrophin exon 23 (nested PCR Method A)", "setting": "[1]; subcutaneous 1,000 pmole/Kg BID for 3 days, quadriceps and gastrocnemius", "result": "detected"},
      {"measurement": "in-frame PCR products of Δexons 21-23 and Δexons 21-24 (nested PCR Method B)", "setting": "[2]", "result": "detected in muscle samples of the ASO treatment groups"},
      {"measurement": "premature deaths (unscheduled death or sacrifice)", "setting": "mdx mice; DMD-ASO 1 50 pmole/Kg, DMD-ASO 2 or DMD-ASO 6 10 pmole/Kg, subcutaneous 2× per week, 66 weeks", "result": "two premature deaths"},
      {"measurement": "cases of muscular lymphoma", "setting": "mdx mice; chronic 10, 50 or 200 pmole/Kg up to Week 43", "result": "no cases of lymphoma"}
    ]}
  ]
}
